Assay results reported in PubChem BioAssay AID1419 (Emory University Molecular Libraries Screening Center, 2008).
The source made the active and inactive calls. How the calls were made is not given here.

Assay: EBV protein-peptide binding inhibitors, dose response, biochemical, fluorescence polarization (AID 1419)
Conditions: cell-free protein-peptide binding, 2 h; for fold change: measured here: P channel fold over control, at 54 µM

| Compound | IC50 | fold change |
| --- | --- | --- |
| N#CC1(C#N)CC(C=O)=C(N)C1(C#N)CC(=O)C12CC3CC(CC(C3)C1)C2 (stereo not given) | > 54 µM (inactive) | 0.933 |
| Cc1nnc(NC(=O)CSc2cn(CCNC(=O)c3ccccc3)c3ccccc23)s1 | > 54 µM (inactive) | 1.05 |
| CCOc1cc(-c2ccc(N)c(OCC)c2)ccc1N | 1.52 µM | 5.61 |
| COc1ccccc1NC(=O)c1sc2nc(Cc3ccccc3)cc(C(F)(F)F)c2c1N | 1.71 µM | 10.7 |
| O=C(N=Nc1c(O)[nH]c2ccc([N+](=O)[O-])cc12)c1cc(-c2ccccc2Cl)nc2ccccc12 | 4.56 µM | 1.03 |
| CCN(CC)c1ccc(N=Cc2c(O)n(CCc3ccc(OC)c(OC)c3)c(=O)[nH]c2=O)cc1 | > 54 µM (inactive) | 5.55 |
| O=C(Nc1ccc(Cl)cc1)Nc1nnc(-c2ccncc2)s1 | > 54 µM (inactive) | 1.08 |
| COc1ccccc1N1C(=O)C2C(C(=O)c3ccccc3)=NN(c3ccc(Br)cc3)C2C1=O (stereo not given) | > 54 µM (inactive) | 16.6 |
| CCCc1cc(=O)n(-c2nc3ccccc3s2)[nH]1 | > 54 µM (inactive) | 0.94 |
| Cc1ccc(NC2=Nc3ccccc3N3C2=Nc2c(c(C)nn2-c2ccccc2)C3c2ccc(O)c(O)c2)cc1 (stereo not given) | 3.36 µM | 2.84 |
| CCn1c(SC(C)C(=O)O)nc2sc3c(c2c1=O)CCC3 (stereo not given) | > 54 µM (inactive) | 1.12 |
| CCN(CC)c1ccc(C=C2C(=O)OC(c3ccccc3)OC2=O)cc1 (stereo not given) | 14.6 µM | 10.8 |
| Nc1ccc2nonc2c1[N+](=O)[O-] | < 0.42 µM | 41 |
| Oc1oc(-c2ccccc2)nc1C=Nc1cccc2ccccc12 | 7.47 µM | 3.16 |
| CCc1ccc[n+](-c2[nH]c(=O)sc2/C=N/NC([S-])=Nc2ccccc2)c1 | 22.1 µM | 2.13 |
| CSC1=NSC2=NC(=O)/C(=C\c3coc4ccccc4c3=O)C(=N)N12 | 2.74 µM | 82.6 |
| COc1ccc(CCNC(=O)COc2nsnc2N2CCOCC2)cc1OC | > 54 µM (inactive) | 1.22 |
| O=[N+]([O-])c1ccc(/C=C/c2nc3ccc([N+](=O)[O-])cc3[nH]2)cc1 | 2.48 µM | 1.15 |
| O=C(NNC(=O)c1sccc1-n1cccc1)c1cccc(Cl)c1 | > 54 µM (inactive) | 0.963 |
| O=C1c2ccccc2-c2onc3ccc(NCc4ccco4)c1c23 | < 0.42 µM | 61.5 |
| O=C1C(=Cc2cccn2-c2ccc(O)cc2)C(=O)c2ccccc21 | 1.94 µM | 4.4 |
| Cc1nn(-c2ccccc2)c2c1C(c1ccccc1)C(C#N)=C(N)O2 (stereo not given) | > 54 µM (inactive) | 1.01 |
| CC(O)CCc1nc2ccc(C(=O)O)cc2[nH]1 (stereo not given) | > 54 µM (inactive) | 0.983 |
| O=C(Nc1ccc(Cl)c(Cl)c1)Nc1nnc(-c2ccncc2)s1 | 2.54 µM | 1.23 |
| CCCCNC(=O)CN1C(=O)c2cccc(N)c2C1=O | 2.71 µM | 2.44 |

| Compound | IC50 | fold change |
| --- | --- | --- |
| O=C(N/N=C/c1cc(Cl)cc([N+](=O)[O-])c1O)NC12CC3CC(CC(C3)C1)C2 | > 54 µM (inactive) | 0.913 |
| O=c1[nH]n2c(=O)c3c([nH]c2c1N=Nc1cccc(Cl)c1)CCC3 | > 54 µM (inactive) | 0.94 |
| COCCN=c1scc(-c2ccco2)n1/N=C/c1ccc(O)c(O)c1O | 12 µM | 1.04 |
| Cc1ccc(NC(=O)CN2C(=O)/C(=C3\SC(=S)N(C4CCS(=O)(=O)C4)C3=O)c3ccccc32)cc1 (stereo not given) | 20.4 µM | 0.67 |
| COC(=O)c1ccc2c(=O)sc(N3CCC(C(N)=O)CC3)nc2c1 | 4 µM | 2.35 |
| CCn1c2ccccc2c2cc(NC(=O)c3ccc(=O)oc3)ccc21 | > 54 µM (inactive) | 1.77 |
| O=S(=O)(Nc1cc2nc3ccccc3nc2n1Cc1ccccc1)c1ccc(Cl)cc1 | 2.89 µM | 13 |
| Cc1nnc(NC(=O)COc2ccc3c(C)cc(=O)oc3c2)s1 | > 54 µM (inactive) | 1.06 |
| N#CC1=C(N)Oc2ccc3ccc(O)cc3c2C1c1ccsc1 (stereo not given) | 1.97 µM | 2.08 |
| O=C(Nc1ccc(-n2cnnn2)cc1)C1CCC1 | > 54 µM (inactive) | 0.983 |
| CC(C)CSC1=NSC2=NC(=O)/C(=C\c3coc4ccccc4c3=O)C(=N)N12 | > 54 µM (inactive) | 33 |
| Cc1ccc(C)c2nc3sc(C(=O)N4CCCc5ccccc54)c(N)c3cc12 | 1.24 µM | 11.6 |
| O=c1[nH]c2c(s1)C=Nc1ccccc1N2 | 0.81 µM | 9.16 |
| COC(=O)CN1C(=S)N(c2ccc(OC)cc2)C(=O)/C1=C/c1ccc(N2CCOCC2)cc1 | 6.67 µM | 2.83 |
| O=C1C(=Cc2ccc(Br)o2)C(=O)c2ccccc21 | > 54 µM (inactive) | 1.09 |
| COc1ccc(/C=C2\CCCc3c2nc2ccccc2c3C(=O)O)cc1OC | < 0.42 µM | 20.3 |
| Cc1ccc(N=Nc2[nH]c3ccccc3c2O)cc1 | 4.87 µM | 27 |
| C=CCOc1cccc(C2C(C(=O)c3ccc(C)o3)=C(O)C(=O)N2c2nccs2)c1 (stereo not given) | < 0.42 µM | 4.84 |
| C=CCn1c(O)c(N=Nc2ccccc2C)c2ccccc21 | 14.9 µM | 12.4 |
| Cc1cc(-c2cccs2)c2c(N)c(C(=O)c3ccc4c(c3)OCO4)sc2n1 | 5.56 µM | 6.29 |
| CCCNC(=O)COC(=O)c1[nH]c(C)c(C(=O)OCC)c1C | > 54 µM (inactive) | 0.937 |
| COc1ccc2c3c(cccc13)C(=O)N(O)C2=O | 4.72 µM | 2.23 |
| CCOC(=O)C1C(=O)C=C(/C=C/c2ccc(N(C)C)cc2)CC1c1ccccc1 (stereo not given) | > 54 µM (inactive) | 7.93 |
| CC(C)OC(=O)c1c2c(n3ccccc13)C(=O)c1ccccc1C2=O | 3.85 µM | 2.93 |
| N=C1/C(=C/c2ccc(-c3cccc(C(=O)O)c3)o2)C(=O)N=C2SC=C(c3ccccc3)N12 | 3.82 µM | 1.36 |
